Data from US20140303145A1, “PHARMACEUTICAL COMPOSITION COMPRISING A POORLY WATER-SOLUBLE ACTIVE INGREDIENT, A SURFACTANT AND A WATER-SOLUBLE POLYMER” (NOVARTIS AG, priority 2001, published 2014).

Tests used:
Format in all cases: physicochemical
[1] = Water solubility of PKC412
Description: (water solubility: <0.1 mg/l), which is referred to hereinafter as PKC412.

[2] = Dissolution behaviour of tablets (Paddle method USP XXIV, SIFmod); conditions: based on a 25 mg dosage; 1 litre SIFmod pH 6.8; tablet test
Description: (§1) The medium used for the dissolution behaviour test is 1 litre of a surfactant-free, modified medium according to “Intestinal Fluid, Simulated, TS” from USP XXIV (SIFmod). KH2PO4 is replaced by NaH2PO4. Pancreatin is not added (pH 6.8).
The dissolution test is carried out according to the “Paddle method” of USP XXIV at 37° C. and at a stirring rate of 50 rpm with a Sotax AT6 (Sotax, Basle, Switzerland). The tablets were added and the amounts of active ingredient released were analysed.
The average amounts of active ingredient released from each of 3 tablets of 25 mg PKC412 according to examples C4-C6 are given in Table 8 as a percentage of the theoretical content.

[3] = Dissolution behaviour of capsules (Paddle method USP XXIV, SIFmod); conditions: based on a 25 mg dosage; 1 litre SIFmod pH 6.8; capsule test
Description: as §1
The dissolution test is carried out according to the “Paddle method” of USP XXIV at 37° C. and at a stirring rate of 50 rpm with a Sotax AT6 (Sotax, Basle, Switzerland). The capsules are placed in a teflon-coated sinker (ATN, Pfaffenheim, France), in order to allow them to remain on the bottom of the dissolution container.
The average amounts of active ingredient released from each of 3 capsules of 25 mg PKC412 according to examples C1 and C2 are given in Table 7 as a percentage of the theoretical content.

In the case of `CO[C@@H]1[C@H](N(C)C(=O)c2ccccc2)C[C@H]2O[C@]1(C)n1c3ccccc3c3c4c(c5c6ccccc6n2c5c31)C(=O)NC4` [PKC412], the solubility [1] is reported as < 0.1 µg/mL, the “comparable solubility of untreated PKC412” value [2] is reported as < 0.4 % of the theoretical content and the “comparable solubility of untreated PKC412” value [3] is reported as < 0.4 % of the theoretical content.
